Our source for the IC50 and melting point values is US8722663B2, “Di-substituted pyridine derivatives as anticancers” (Otsuka Pharmaceutical Co., Ltd., priority 2010, dated 2014).

Data set [1] deals with human breast cancer cell line (MDA-MB-468). In words: Growth inhibition of MDA-MB-468 cells, sulforhodamine B method. It is filed as cell-based. The following applies: 120 h, 5 days with test compound. The protocol: Growth inhibition of a human breast cancer cell line (MDA-MB-468) was determined by the sulforhodamine B method based on the method of Skehan P. et al. (J Natl Cancer Inst. 1990 Jul. 4; 82(13): 1107-12). In the study, MDA-MB-468 cells were seeded on DMEM medium containing 10% fetal bovine serum in a 96-well microplate. After 24-h incubation at 37° C. in the presence of 5% carbon dioxide, the test compound was added and the cells were incubated for another 5 days. After incubation, a trichloroacetic acid solution was added to yield the final concentration of 10% and the cells were left to stand at 4° C. for 1 hour to fix. Then, the cells were washed with water to remove the medium and trichloroacetic acid and dried in the air. The dried cells were stored at 4° C. until they were stained with sulforhodamine B. To each well, 1% acetic acid solution containing 0.4% sulforhodamine B was added and left to stand for 20 to 30 minutes at room temperature. After discarding the supernatant, each well was washed with 1% acetic acid solution, and 10 mM Tris([…]) solution was added while stirring to elute the dye taken into the cells. Then, the optical density was determined at the measurement wavelength of 492 nm and the reference wavelength of 690 nm, and the difference was calculated. The cell growth activity in each well was defined as the value determined by subtracting the OD in the control well not containing cells (the difference in absorbance between 492 nm and 690 nm) from that in the test well.
(§1) The 50% inhibitory concentration (IC50 (nM)) of the test compound was determined by comparing the cell growth activity in the well containing the test compound with that of the control not containing the test compound.
On the technique in general: Sulforhodamine B stains cellular protein and so reports cell mass.

The test system of data set [2] is bicalutamide resistant human prostate cancer cell line established from LNCaP.FGC (LNCaP-Bic). Briefly: Growth inhibition of LNCaP-Bic cells, WST-8 assay. Particulars: 120 h, 5 days with test compound. It is filed as cell-based. The protocol: (§2) The growth inhibition on a bicalutamide resistant human prostate cancer cell line established from LNCaP.FGC (LNCaP-Bic) (Hobisch A, et al. Prostate. 2006; 66(4):413-20.) was determined by a WST-8 assay according to the method of Singh A K, et al. (Cancer Lett. 1996 Oct. 1; 107(1): 109-15.). In this method, LNCaP-Bic cells were seeded in RPMI 1640 medium containing 10% fetal bovine serum in a 96-well microplate and incubated at 37° C. for 24 hours in the presence of 5% carbon dioxide. Then, the test compound was added and the cells were incubated for another 5 days. After incubation, a 15-μL volume of WST-8 (2-(2-methoxy-4-nitrophenyl)-3-(4-nitrophenyl)-5-(2,4-[…])-2H-tetrazolium, monosodium salt) was added. After the incubation for the time, the color reaction was stopped by adding 15 μL of 1% SDS (sodium dodecyl sulfate) solution and the optical density was determined at the measurement wavelength of 450 nm and the reference wavelength of 630 nm, and the difference was calculated. The cell growth activity in each well was defined as the value determined by subtracting the OD in the control well not containing cells (the difference in absorbance between 450 nm and 630 nm) from that in the test well.
as §1

Data set [3] deals with human prostate (carcinoma) cell line (LNCaP.FGC). In words: Growth inhibition of LNCaP.FGC cells, WST-8 assay. It counts as cell-based. The following applies: 120 h, 5 days with test compound. On the procedure: as §2, §1
The growth inhibition on a human prostate (carcinoma) cell line (LNCaP.FGC) (van Bokhoven A, et al. Prostate. 2003; 57(3):205-25.) was also determined by the above method.
(Tetrazolium dyes change colour on reduction, which living cells bring about.)

For data set [4], the system named is human prostate (adenocarcinoma) cell line (VcaP). Briefly: Growth inhibition of VcaP cells, WST-8 assay. It is filed as cell-based. Particulars: 120 h, 5 days with test compound. On the procedure:
as §2, §1
The growth inhibition on a human prostate (adenocarcinoma) cell line (VcaP) (Korenchuk S, et al. In Vivo. 2001; 15(2):163-8.) was also determined by the above method.

Data set [5] deals with human prostate (carcinoma) cell line (DU 145). Briefly: Growth inhibition of DU 145 cells, WST-8 assay. It counts as cell-based. The following applies: 120 h, 5 days with test compound. The protocol:
as §2, §1
The growth inhibition on a human prostate (carcinoma) cell line (DU 145) (van Bokhoven A, et al. Prostate. 2003; 57(3):205-25.) was also determined by the above method.

Data set [6] relates to human prostate (adenocarcinoma) cell line (PC-3). In words: Growth inhibition of PC-3 cells, WST-8 assay. It is filed as cell-based. The following applies: 120 h, 5 days with test compound. On the procedure: as §2, §1
The growth inhibition on a human prostate (adenocarcinoma) cell line (PC-3) (van Bokhoven A, et al. Prostate. 2003; 57(3):205-25.) was also determined by the above method.

SMILES strings stand for the structures. Counter-ions that a name gives are not always drawn.

One may read the IC50 as the concentration at which inhibition is half-maximal. A high value points to weaker potency. With `Cc1ccc(COc2ccc(Oc3c(C)cc(/C=C/C(=O)N4CCN(Cc5ccc(C)cc5)CC4)cc3Cl)nc2)cc1` [Example 359, (E)-3-[3-Chloro-5-methyl-4-({5-[(4-methylbenzyl)oxy]pyridin-2-yl}oxy)phenyl]-1-[4-(4-methylbenzyl)piperazin-1-yl]prop-2-en-1-one], the IC50 in data set [1] is < 10 nM.
On the same count and under the same terms, next, `Cc1cc(/C=C/C(=O)N2CCN(Cc3ccc(COc4ccc(C(C)C)cc4)cc3)CC2)cc(C)c1Oc1ccc(OCc2cscn2)cn1` [Example 648, (E)-3-(3,5-Dimethyl-4-{[5-(1,3-thiazol-4-ylmethoxy)pyridin-2-yl]oxy}phenyl)-1-[4-(4-{[4-(propan-2-yl)phenoxy]methyl}benzyl)piperazin-1-yl]prop-2-en-1-one hydrochloride]: < 10 nM.
Turning to `Cc1cc(/C=C/C(=O)N2CCN(Cc3ccc(CCOc4ccc(C#N)cc4)cc3)CC2)cc(Cl)c1Oc1ccc(OCc2ccc(C(F)(F)F)cc2)cn1` [Example 289, 4-{2-[4-({4-[(E)-3-{3-chloro-5-methyl-4-[(5-{[4-(trifluoromethyl)benzyl]oxy}pyridin-2-yl)oxy]phenyl}prop-2-enoyl]piperazin-1-yl}methyl)phenyl]ethoxy}benzonitrile], the IC50 in data set [1] is < 10 nM.
For `Cc1ccc(COc2ccc(Oc3c(C)cc(/C=C/C(=O)N4CCN(Cc5ccc(CC(C)Oc6ccc(C)cc6)cc5)CC4)cc3Cl)nc2)cc1` (centres unmarked) [Example 534, (E)-3-[3-Chloro-5-methyl-4-({5-[(4-methylbenzyl)oxy]pyridin-2-yl}oxy)phenyl]-1-(4-{4-[2-(4-methylphenoxy)propyl]benzyl}piperazin-1-yl)prop-2-en-1-one hydrochloride], the IC50 in data set [1] was < 10 nM.
As for `Cc1ccc(COc2ccc(Oc3c(C)cc(/C=C/C(=O)N4CCCN(Cc5ccc(CCOc6ccc(C(C)C)cc6)cc5)CC4)cc3Cl)nc2)cc1` [Example 123, (E)-3-[3-Chloro-5-methyl-4-({5-[(4-methylbenzyl)oxy]pyridin-2-yl}oxy)phenyl]-1-[4-(4-{2-[4-(propan-2-yl)phenoxy]ethyl}benzyl)-1,4-diazepan-1-yl]prop-2-en-1-one], the IC50 in data set [1] was < 10 nM.
Broadly, the melting point is the temperature of the solid-liquid transition. Consider `Cc1ccc(OCCCc2ccc(CN3CCN(C(=O)/C=C/c4cc(C)c(Oc5ccc(OCc6ccc(C#N)cc6)cn5)c(Cl)c4)CC3)cc2)cc1.Cl` [Example 621, 4-{[(6-{2-Chloro-6-methyl-4-[(E)-3-(4-{4-[3-(4-methylphenoxy)propyl]benzyl}piperazin-1-yl)-3-oxoprop-1-en-1-yl]phenoxy}pyridin-3-yl)oxy]methyl}benzonitrile hydrochloride], for which the melting point fell in the range of 193 to 194.8 °C. Further, the IC50 in data set [2] is < 10 nM. In addition, the 50% inhibitory concentration (IC50) in data set [3] is < 10 nM. Moreover, in data set [4], the IC50 was < 10 nM. The IC50 in data set [5] is < 10 nM. In addition, the IC50 in data set [6] was < 10 nM.
Turning to `Cc1cc(/C=C/C(=O)N2CCN(Cc3ccc(CCOc4ccc(F)cc4)cc3)CC2)cc(Cl)c1Oc1ccc(OCc2ccccc2F)cn1.Cl` [Example 447, (E)-3-[3-Chloro-4-({5-[(2-fluorobenzyl)oxy]pyridin-2-yl}oxy)-5-methylphenyl]-1-(4-{4-[2-(4-fluorophenoxy)ethyl]benzyl}piperazin-1-yl)prop-2-en-1-one hydrochloride], the melting point was in the range of 224 to 224.5 °C. The IC50 in data set [2] was < 10 nM. For the same molecule, in data set [3], the IC50 was < 10 nM. In data set [4], the IC50 was < 10 nM. For the same molecule, in data set [5], the IC50 was < 10 nM. For the same molecule, in data set [6], the IC50 was < 10 nM.
As for `Cc1ccc(OCCc2ccc(CN3CCN(C(=O)/C=C/c4cc(C)c(Oc5ccc(OCc6cccc(F)c6F)cn5)c(Cl)c4)CC3)cc2)cc1` [Example 487, (E)-3-[3-Chloro-4-({5-[(2,3-difluorobenzyl)oxy]pyridin-2-yl}oxy)-5-methylphenyl]-1-(4-{4-[2-(4-methylphenoxy)ethyl]benzyl}piperazin-1-yl)prop-2-en-1-one hydrochloride], in data set [1], the IC50 was < 10 nM.
For `Cc1ccc(COc2ccc(Oc3c(C)cc(/C=C/C(=O)N4CCN(Cc5ccc(CCOc6ccc(N(C)C)cc6)cc5)CC4)cc3Cl)nc2)cc1` [Example 321, (E)-3-[3-chloro-5-methyl-4-({5-[(4-methylbenzyl)oxy]-pyridin-2-yl}oxy)phenyl]-1-[4-(4-{2-[4-(dimethylamino)phenoxy]ethyl}benzyl)piperazin-1-yl]prop-2-en-1-one], the half-maximal inhibitory concentration (IC50) in data set [1] was < 10 nM.
For `COc1ccc(COc2ccc(Oc3c(C)cc(/C=C/C(=O)N4CCN(Cc5ccc(CC(C)Oc6ccc(F)cc6)cc5)CC4)cc3C)nc2)cc1` (centres unmarked) [Example 725, (E)-1-(4-{4-[2-(4-Fluorophenoxy)propyl]benzyl}piperazin-1-yl)-3-[4-({5-[(4-methoxybenzyl)-oxy]pyridin-2-yl}oxy)-3,5-dimethylphenyl]prop-2-en-1-one hydrobromide], the IC50 in data set [1] is < 10 nM.
`Cc1ccc(COc2ccc(Oc3c(C)cc(/C=C/C(=O)N4CCN(Cc5ccc(CCOc6ccc(Cl)cc6)cc5)CC4)cc3Cl)nc2)cc1F.Cl` [Example 427, (E)-3-[3-Chloro-4-({5-[(3-fluoro-4-methylbenzyl)oxy]pyridin-2-yl}oxy)-5-methylphenyl]-1-(4-{4-[2-(4-chlorophenoxy)ethyl]benzyl}piperazin-1-yl)prop-2-en-1-one hydrochloride] came in with a melting point of 224.7 to 224.8 °C. The IC50 in data set [2] is < 10 nM. Besides, in data set [3], the IC50 is < 10 nM. For the same molecule, the IC50 in data set [4] was < 10 nM. For the same molecule, in data set [5], the IC50 was < 10 nM. In addition, the IC50 in data set [6] was < 10 nM.
In turn, `Cc1cc(/C=C/C(=O)N2CCN(Cc3ccc(CCOc4ccc(C(C)C)cc4)cc3)CC2)ccc1Oc1ccc(OCc2ccccc2Cl)cn1.Cl` [Example 507, (E)-3-[4-({5-[(2-Chlorobenzyl)oxy]pyridin-2-yl}oxy)-3-methylphenyl]-1-[4-(4-{2-[4-(propan-2-yl)phenoxy]ethyl}benzyl)piperazin-1-yl]prop-2-en-1-one hydrochloride] registered a melting point of 178.2 to 178.9 °C. Further, the IC50 in data set [2] is < 10 nM. Further, the IC50 in data set [3] was < 10 nM. Besides, the IC50 in data set [4] is < 10 nM. Also, the IC50 in data set [5] is < 10 nM. In addition, the IC50 in data set [6] is < 10 nM.
Molecule `COc1ccc(NCCc2ccc(CN3CCN(C(=O)/C=C/c4ccc(Oc5ccc(OCc6ccc(C#N)cc6)cn5)c(Cl)c4)CC3)cc2)cc1.Cl.Cl` [Example 669, 4-({[6-(2-Chloro-4-{(E)-3-[4-(4-{2-[(4-methoxyphenyl)amino]ethyl}benzyl)piperazin-1-yl]-3-oxoprop-1-en-1-yl}phenoxy)pyridin-3-yl]oxy}methyl)benzonitrile dihydrochloride] displayed a melting point of 219.5 to 222.3 °C. The IC50 in data set [2] was < 10 nM. Further, in data set [3], the IC50 was < 10 nM. Also, the IC50 in data set [4] was < 10 nM. Besides, the IC50 in data set [5] is < 10 nM. For the same molecule, in data set [6], the half-inhibitory concentration (IC50) was < 10 nM.
Turning to `CCOc1cccc(OCCc2ccc(CN3CCN(C(=O)/C=C/c4cc(C)c(Oc5ccc(OCc6cncs6)cn5)c(C)c4)CC3)cc2)c1.Cl` [Example 594, (E)-3-(3,5-Dimethyl-4-{[5-(1,3-thiazol-5-ylmethoxy)pyridin-2-yl]oxy}phenyl)-1-(4-{4-[2-(3-ethoxyphenoxy)ethyl]benzyl}piperazin-1-yl)prop-2-en-1-one hydrochloride], the melting point fell in the range of 190.4 to 191.8 °C. Also, the IC50 in data set [2] is < 10 nM. The IC50 in data set [3] is < 10 nM. Besides, the 50% inhibitory concentration (IC50) in data set [4] is < 10 nM. Besides, in data set [5], the half-inhibitory concentration (IC50) was < 10 nM. Moreover, the IC50 in data set [6] is < 10 nM.
